Series [1] in a line: Canine pharmacokinetic (PK) study, single IV or oral dose. The note with it: dog; for Vd / clearance / half-life / Cmax: in vivo; for Vd / clearance / half-life: iv, 0.2 mg/kg; for Cmax: po, 1 mg/kg; for F: oral 1 mg/kg.
Series [2] concerns circulating microfilariae (Dirofilaria immitis). The series can be described thus: Heartworm Positive Dog Studies (effects on circulating microfilariae, clinical observations).
The subject of series [3] is microfilariae of Dirofilaria immitis. The series can be described thus: Dirofilaria immitis, Microfilaria (DiMF) In vitro Assay. The format is cell-based. The note with it: 72 h, read-out: DiMF Minimum Effective Dose (MED), approximately 72 hours incubation, microfilariae assessed for survival or paralysis.
Series [4] has as its system 4th stage larvae (L4) of Dirofilaria immitis. The series can be described thus: Dirofilaria immitis, L4 Stage (DiL4) In Vitro Assay. The format is cell-based. The note with it: Dirofilaria immitis, 72 h, read-out: DiL4 Minimum Effective Dose (MED), approximately 72 hours incubation; L4 larvae assessed for survival or paralysis.
For series [5], the system named is third stage larvae of Haemonchus contortus. The series can be described thus: Haemonchus contortus L3 (HcL3) Assay. It counts as cell-based. Conditions: 96 h, read-out: HcL3 Minimum Effective Dose (MED).

Structures are written as SMILES.

On to `CC(C)C[C@H]1C(=O)O[C@H](Cc2ccc(Cn3nc(C4CC4)cc3C3CC3)cc2)C(=O)N(C)[C@@H](CC(C)C)C(=O)O[C@H](C)C(=O)N(C)[C@@H](CC(C)C)C(=O)O[C@H](Cc2ccc(Cn3nc(C4CC4)cc3C3CC3)cc2)C(=O)N(C)[C@@H](CC(C)C)C(=O)O[C@H](C)C(=O)N1C` [Example 1b-14, (3S,6R,9S,12R,15S,18R,21S,24R)-6,18-bis({4-[(3,5-dicyclopropyl-1H-pyrazol-1-yl)methyl]phenyl}methyl)-4,10,12,16,22,24-hexamethyl-3,9,15,21-tetrakis(2-methylpropyl)-1,7,13,19-tetraoxa-4,10,16,22-tetraazacyclotetracosan-2,5,8,11,14,17,20,23-octaone], for which, in series [1], the Vd worked out at 2.7 L/kg, the clearance came to 0.9 mL/min/kg, the half-life (usually the time needed for the level to fall by half in the phase considered) was 138 h and the highest level (Cmax) was 111 ng/mL. The molecule also returned a F in series [1] of 10%. In addition, in series [2] (heartworm positive dogs, blood, 3 dogs/treatment, baseline before oral dose), the “Mean MF/mL, Day 0 Pre-dose” value is given as 15,000 MF/mL. In series [2] (heartworm positive dogs, blood, 3 dogs/treatment, oral dose (emodepside and 1b-14 1 mg/kg, 1b-25 up to 3 mg/kg), 2 hours post-dose), the “Mean MF/mL, Day 0 Post-dose, 2 hours” value is recorded as 20,000 MF/mL. The “Mean MF/mL, Day 1” value in series [2] (heartworm positive dogs, blood, 3 dogs/treatment, oral dose (emodepside and 1b-14 1 mg/kg, 1b-25 up to 3 mg/kg), Day 1) is recorded as 14,000 MF/mL. Further, in series [2] (heartworm positive dogs, blood, 3 dogs/treatment, oral dose (emodepside and 1b-14 1 mg/kg, 1b-25 up to 3 mg/kg), Day 7), the “Mean MF/mL, Day 7” value was 15,000 MF/mL. Further, in series [2] (heartworm positive dogs, blood, 3 dogs/treatment, oral dose (emodepside and 1b-14 1 mg/kg, 1b-25 up to 3 mg/kg), Day 14), the “Mean MF/mL, Day 14” value is listed as 33,000 MF/mL. For the same molecule, the “Mean MF/mL, Day 21” value in series [2] (heartworm positive dogs, blood, 3 dogs/treatment, oral dose (emodepside and 1b-14 1 mg/kg, 1b-25 up to 3 mg/kg), Day 21) was 28,000 MF/mL. For the same molecule, the “adverse effects / clinical observations” value in series [2] (heartworm positive dogs, 1 mg/kg (po)) is listed as “no adverse clinical observations noted”. In addition, the “average MF counts on day 21” value in series [2] (heartworm positive dogs, 1 mg/kg (po), 15,000 MF/mL of blood pre-dose) was 28,000 MF/mL of blood. Also, the “effects on circulating MF counts” value in series [2] (heartworm positive dogs, 1 mg/kg (po), throughout the dog study) is recorded as “no significant effects on circulating MF counts”. For the same molecule, in series [2] (vs pre-dose (Day 0) counts, oral dose, 2 hours post-dose), the “% Reduction of circulating microfilariae, Day 0 Post-dose, 2 hours” value is on record as −33%. Besides, the “% Reduction of circulating microfilariae, Day 1” value in series [2] (vs pre-dose (Day 0) counts, oral dose, Day 1) worked out at 7%. Further, in series [2] (vs pre-dose (Day 0) counts, oral dose, Day 7), the “% Reduction of circulating microfilariae, Day 7” value is given as 0%. Further, the “% Reduction of circulating microfilariae, Day 14” value in series [2] (vs pre-dose (Day 0) counts, oral dose, Day 14) was −120%. Besides, in series [2] (vs pre-dose (Day 0) counts, oral dose, Day 21), the “% Reduction of circulating microfilariae, Day 21” value is −87%. Further, the minimal effective concentration in series [3] is 0.3 µM.

Consider `CCOc1cnn(Cc2ccc(C[C@H]3OC(=O)[C@H](CC(C)C)N(C)C(=O)[C@@H](C)OC(=O)[C@H](CC(C)C)N(C)C(=O)[C@@H](Cc4ccc(Cn5cc(OCC)cn5)cc4)OC(=O)[C@H](CC(C)C)N(C)C(=O)[C@@H](C)OC(=O)[C@H](CC(C)C)N(C)C3=O)cc2)c1` [Example 1b-21, (3S,6R,9S,12R,15S,18R,21S,24R)-6,18-bis[[4-[(4-ethoxypyrazol-1-yl)methyl]phenyl]methyl]-3,9,15,21-tetraisobutyl-4,10,12,16,22,24-hexamethyl-1,7,13,19-tetraoxa-4,10,16,22-tetrazacyclotetracosane-2,5,8,11,14,17,20,23-octaone], for which the minimal effective concentration in series [4] was 0.0001 to 0.001 µM. Besides, in series [1], the Vd turned out to be 28.4 L/kg; the clearance came to 15.5 mL/min/kg; the half-life was 36.1 h; the Cmax (as a rule, the highest concentration seen after dosing) was 145 ng/mL. In series [1], this molecule gave an F of 78%. In addition, the minimal effective concentration in series [3] lay within 0.001 to 0.01 µM. Also, in series [5], the minimal effective concentration was in the range of 1 to 10 µM.

These data come from US11331369B2, “Endoparasitic depsipeptides” (Zoetis Services LLC, priority 2017, dated 2022).
